Assay [1] addresses T1, T. brucei 6PGDH (Trypanosoma brucei brucei, UniProt P31072).
T1 sequence (P31072 1-479): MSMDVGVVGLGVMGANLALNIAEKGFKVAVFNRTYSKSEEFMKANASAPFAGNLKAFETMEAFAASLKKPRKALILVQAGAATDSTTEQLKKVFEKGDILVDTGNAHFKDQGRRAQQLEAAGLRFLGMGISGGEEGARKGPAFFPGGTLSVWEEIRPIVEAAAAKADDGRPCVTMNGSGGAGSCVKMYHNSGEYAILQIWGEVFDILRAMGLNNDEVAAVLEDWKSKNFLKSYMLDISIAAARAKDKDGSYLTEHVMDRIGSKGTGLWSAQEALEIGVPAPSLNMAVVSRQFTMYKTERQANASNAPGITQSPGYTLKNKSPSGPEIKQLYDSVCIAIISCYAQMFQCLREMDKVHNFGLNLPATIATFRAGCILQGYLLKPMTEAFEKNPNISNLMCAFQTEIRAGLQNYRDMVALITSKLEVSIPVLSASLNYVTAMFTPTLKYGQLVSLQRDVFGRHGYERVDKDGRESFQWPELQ
The experiment in a line: biochemical.
Method: (§1) Inhibition studies involved a reaction in 50 mM triethanolamine pH 7.0, 2 mM MgCl2. NADPH and 6PG were each at 20 μM. Total reaction volume was 1 ml. The reaction was followed in a Perkin Elmer UV–vis spectrophotometer. Compounds were dissolved in DMSO and initially added at 200 μM, then 50 μM.

The target in assay [2] is T1, T. brucei 6PGDH. Particulars: for Hill slope: slope of the IC50 curve, recombinant Tb6PGDH; for Ligand efficiency: −RTLn(IC50)/HAC, HAC: heavy atom count; for confirmation of enzyme inhibition on re-test: second round, repurchased hits of the first screening.
Method: as §1
The subject of the next assay is 6PGDH. Also on record: method as in PMID 9307279. The settings on record: might bind to the cofactor binding site; cited from earlier work.

SMILES strings stand for the structures.

Regarding `O=C1CC(S(=O)(=O)[O-])c2ccccc2/C1=N/O.[Na+]` (centres unmarked) [Compound 11], the IC50 – broadly, the concentration that inhibits the measured activity by half – against T. brucei 6PGDH [1] was 73 ± 9 µM. Also, on T. brucei 6PGDH [2], the Hill slope (in general, a measure of the steepness of the concentration-response curve) came to 1.4 and the Ligand efficiency was 0.33 (kcal/mol)/HAC.

Molecule `Cc1c(C(=O)O)[nH]c(-c2[nH]c(C(=O)O)c(C)c2C)c1C` [Compound 14] yielded an IC50 on T. brucei 6PGDH [1] of 114 ± 27 µM. On T. brucei 6PGDH [2], the Hill slope is recorded as 1.4 and the Ligand efficiency is listed as 0.27 (kcal/mol)/HAC.

Turning to `NC(=O)c1ccc(N)nc1` [6-aminonicotinamide], the “inhibition of 6PGDH” value in the assay on 6PGDH was “potential inhibitor of 6PGDH”.

With `Cc1oc([N+](=O)[O-])cc1C(=O)O` [Compound 3], the half-maximal inhibitory concentration (IC50) at T. brucei 6PGDH [1] was 28 ± 6 µM. Also, at T. brucei 6PGDH [2], the Hill slope amounted to 1.5 and the Ligand efficiency is 0.52 (kcal/mol)/HAC.

In the case of `NC(=O)N1CCCC1C(=O)O` (centres unmarked) [Compound 4], the “confirmation of enzyme inhibition on re-test” value at T. brucei 6PGDH [2] is recorded as “did not confirm the previous reported activity”.

Molecule `O=C(O)c1cc2sccc2[nH]1` [Compound 13] registered an IC50 at T. brucei 6PGDH [1] of 42 ± 7 µM. Moreover, at T. brucei 6PGDH [2], the Hill slope is 1.1 and the Ligand efficiency is reported as 0.54 (kcal/mol)/HAC.

In the case of `NC(CS(=O)(=O)O)C(=O)O` (centres unmarked) [Compound 10], the “confirmation of enzyme inhibition on re-test” value at T. brucei 6PGDH [2] is listed as “did not confirm the previous reported activity”.

`CCOC(=O)c1[nH]c(C(=O)O)c(C)c1C` [Compound 1] came in with an IC50 at T. brucei 6PGDH [1] of 45 ± 11 µM. Moreover, at T. brucei 6PGDH [2], the Hill slope is reported as 1.6 and the Ligand efficiency is reported as 0.40 (kcal/mol)/HAC.

On to `N#C/C(=C\c1ccc([N+](=O)[O-])o1)C(=O)O` [Compound 17], for which the IC50 against T. brucei 6PGDH [1] was 5.8 ± 0.6 µM. On T. brucei 6PGDH [2], the Hill slope amounted to 2.0 and the Ligand efficiency is 0.48 (kcal/mol)/HAC.

`O=C(O)C(=Cc1ccc([N+](=O)[O-])o1)C(=O)O` [Compound 15] registered an IC50 on T. brucei 6PGDH [1] of 56 ± 6 µM. At T. brucei 6PGDH [2], the Hill slope is 5.2 and the Ligand efficiency was 0.36 (kcal/mol)/HAC.

Consider `NC(C(=O)O)c1ccsc1` (centres unmarked) [Compound 5], for which, at T. brucei 6PGDH [2], the “confirmation of enzyme inhibition on re-test” value is “did not confirm the previous reported activity”.

For the molecule `O=C1C=C(S(=O)(=O)[O-])c2ccccc2C1=O.[K+]` [Compound 16], the Hill slope on T. brucei 6PGDH [2] is on record as 4.8.

In turn, `O=C(O)c1cc(Cl)c[nH]1` [Compound 2] came in with an IC50 at T. brucei 6PGDH [1] of 43 ± 9 µM. Also, at T. brucei 6PGDH [2], the Hill slope is recorded as 1.8 and the Ligand efficiency is 0.66 (kcal/mol)/HAC.

On T. brucei 6PGDH [1], `O=C(O)c1cc(Cl)c(Cl)[nH]1` [Compound 18] displayed an IC50 of 42 ± 3.7 µM. On T. brucei 6PGDH [2], the Hill slope was found to be 2.1 and the Ligand efficiency is listed as 0.60 (kcal/mol)/HAC.

As for `Cc1c(C(=O)O)oc2c1C(=O)CSC2` [Compound 12], the IC50 against T. brucei 6PGDH [1] was determined as 51 ± 3 µM. At T. brucei 6PGDH [2], the Hill slope is given as 1.7 and the Ligand efficiency was 0.42 (kcal/mol)/HAC.

The values are drawn from paper PMC2939770 (Bioorganic & Medicinal Chemistry, 2010).
